Assay results from patent US11723920B2, “Method for treating cancer with a nanoformulation” (Imam Abdulrahman Bin Faisal University, priority 2019, dated 2023).

System: human mammary adenocarcinoma cell line, MCF-7
Assay: Cell viability MTT assay on MCF-7 cells
Assay type: cell-based
Conditions: MCF-7, 48 h
Procedure: Cells were maintained in DMEM (Dulbecco's Modified Eagle Medium) (Gibco, life technologies) supplemented with 10% heat inactivated fetal bovine serum (HI-FBS) (Gibco, life technology), 1% Penicillin Streptomycin (100×— Gibco, life technology), and 1% MEM NEAA (MEM non-essential amino acids) (100×— Gibco, life technology). Cells were kept in a humidified incubator at 37° C. with 5% CO2. For the experimental setup, MCF-7 cells were seeded on a 96-well plate at a density of 20,000 cells/well. On the next day, cells were shifted to the starve media (0.5% HI-FBS containing media) for 24 h before treatment.
For groups B, C, E, and F, treatment concentrations were as follows: 0.025, 0.05, 0.1, and 0.5 mg/mL. […] Therefore, treatment concentrations for group A were as follows: 0.0084, 0.0168, 0.0336, and 0.168 mg/mL. Treatment concentrations used in this experiment for group D were as follows: 0.001125, 0.00225, 0.0045, 0.0225 mg/mL.
The viability of cells was tested using 3-(4,5-dimethylthiazol-2-yl)-2,5-diphenyltetrazolium bromide (MTT) assay. It is based on the ability to reduce MTT relative to formazan crystals. […] The change in color intensity was measured at 570 nm wavelength using SYNERGY-neo2 BioTek ELISA reader. […] The reading of each triplicate was averaged and subtracted from the averaged MTT background control reading. […]

With `N.N.[Cl][Pt][Cl]` [cisplatin] the “effect on cell viability (in words)” value was “significantly reduced cell viability”.
